Test results: article PMC7835950 (Frontiers in Chemistry, 2021)

How the values were obtained:
[1] = biological target: T1, OGDH (Rattus norvegicus, UniProt Q5XI78); experiment: OGDH reaction (OG saturation) catalyzed by the enzyme preparation from rat liver; format: biochemical; parameters: the tissue fractions with the complexes enriched to a degree allowing for a robust detection of the enzymatic activities, have been used; from tissue
T1 sequence (Q5XI78 41-1023): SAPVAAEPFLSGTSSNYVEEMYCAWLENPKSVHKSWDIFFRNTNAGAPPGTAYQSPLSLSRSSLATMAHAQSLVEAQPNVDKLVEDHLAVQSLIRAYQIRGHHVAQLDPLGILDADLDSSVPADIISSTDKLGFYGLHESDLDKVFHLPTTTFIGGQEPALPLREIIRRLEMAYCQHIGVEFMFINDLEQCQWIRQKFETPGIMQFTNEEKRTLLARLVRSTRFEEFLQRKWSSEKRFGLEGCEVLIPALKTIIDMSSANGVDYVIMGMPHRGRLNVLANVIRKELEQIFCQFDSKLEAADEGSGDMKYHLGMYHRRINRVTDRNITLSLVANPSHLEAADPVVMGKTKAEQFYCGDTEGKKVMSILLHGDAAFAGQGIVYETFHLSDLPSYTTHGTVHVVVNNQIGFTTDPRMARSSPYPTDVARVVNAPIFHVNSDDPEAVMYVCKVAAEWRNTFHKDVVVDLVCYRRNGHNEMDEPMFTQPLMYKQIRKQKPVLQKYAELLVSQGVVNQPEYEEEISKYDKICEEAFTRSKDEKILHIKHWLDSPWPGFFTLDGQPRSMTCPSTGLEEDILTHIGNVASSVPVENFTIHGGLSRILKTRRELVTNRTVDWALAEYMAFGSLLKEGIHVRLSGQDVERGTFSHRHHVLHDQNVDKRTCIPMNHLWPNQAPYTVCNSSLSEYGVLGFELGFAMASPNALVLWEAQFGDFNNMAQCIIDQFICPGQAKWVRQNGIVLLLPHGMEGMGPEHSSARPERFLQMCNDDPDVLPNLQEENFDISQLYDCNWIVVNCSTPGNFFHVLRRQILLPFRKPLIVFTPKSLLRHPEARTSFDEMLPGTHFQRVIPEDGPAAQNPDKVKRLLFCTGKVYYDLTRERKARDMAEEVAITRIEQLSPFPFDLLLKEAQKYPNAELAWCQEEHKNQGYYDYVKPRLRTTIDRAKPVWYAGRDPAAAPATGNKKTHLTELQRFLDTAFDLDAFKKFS
T1 sequence (Q01205 69-454 partner): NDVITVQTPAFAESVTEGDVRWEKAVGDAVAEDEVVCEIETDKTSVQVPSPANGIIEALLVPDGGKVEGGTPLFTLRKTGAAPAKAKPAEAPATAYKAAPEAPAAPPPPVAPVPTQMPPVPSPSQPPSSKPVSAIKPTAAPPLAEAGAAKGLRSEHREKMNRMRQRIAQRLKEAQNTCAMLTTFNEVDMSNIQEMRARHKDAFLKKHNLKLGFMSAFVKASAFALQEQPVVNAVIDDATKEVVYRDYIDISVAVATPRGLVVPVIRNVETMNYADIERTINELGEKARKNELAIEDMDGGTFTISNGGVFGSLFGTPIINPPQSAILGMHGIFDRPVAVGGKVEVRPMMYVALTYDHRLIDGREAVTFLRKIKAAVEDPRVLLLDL
T1 sequence (Q6P6R2 36-509 partner): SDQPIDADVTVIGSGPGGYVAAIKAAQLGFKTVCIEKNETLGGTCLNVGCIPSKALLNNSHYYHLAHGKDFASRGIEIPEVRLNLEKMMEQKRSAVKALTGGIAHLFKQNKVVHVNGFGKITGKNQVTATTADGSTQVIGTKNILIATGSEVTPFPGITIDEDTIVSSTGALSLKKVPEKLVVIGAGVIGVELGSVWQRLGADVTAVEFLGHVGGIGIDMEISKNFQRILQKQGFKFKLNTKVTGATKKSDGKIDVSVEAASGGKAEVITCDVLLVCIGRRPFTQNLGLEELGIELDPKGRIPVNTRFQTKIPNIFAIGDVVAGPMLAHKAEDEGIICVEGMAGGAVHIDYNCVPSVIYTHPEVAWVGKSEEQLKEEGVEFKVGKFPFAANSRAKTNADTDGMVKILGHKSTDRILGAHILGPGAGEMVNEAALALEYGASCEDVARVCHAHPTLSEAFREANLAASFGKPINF
Description: (§1) Reactions were started by addition of the enzyme preparations to the assay media. The amount of enzyme preparations (0.074 mg protein for the preparation from liver and 0.023 mg protein for the preparation from heart) were chosen to induce the lowest reliably measured reaction rate (ΔA340 = 0.001/min) at 0.01 mM OA without the phosphonates.
(§2) Reaction rates were calculated from linear parts of the product accumulation curves (up to 10 min, dependent on the reaction rate), excluding the initial region, where mixing the reagents and solubilization of the preparation affected the optical density.
(§3) The former equation describes one type of the active sites. […] The assumption was based on the presence of the two enzymes, OGDH and OADH, in the employed preparations.
(§4) The Km and Amax values obtained in independent experiments using the non-linear and linear regression analyses of the experimental data, were averaged and presented as Mean ± Standard Error of Mean.
(§5) The values of Ki were determined as the ratio of the corresponding Intercepts to the Slopes. In the two-site model, the Ki(1) and Ki(2) were calculated separately from the linear approximations of Km,1eff/Amax,1eff vs. [I] and Km,2eff/Amax,2eff vs. [I] dependences, respectively. […] The Ki values obtained from the non-linear and linear regression analyses of the experimental data were averaged and presented as Mean ± Standard Error of Mean.

[2] = biological target: T1, OGDH; experiment: OGDH reaction (OG saturation) catalyzed by the enzyme preparation from rat heart; format: biochemical; parameters: the tissue fractions with the complexes enriched to a degree allowing for a robust detection of the enzymatic activities, have been used; from tissue; host or cells: rat heart
Description: as §1, §2, §3, §4, §5

[3] = tested on: other enzymes transforming organic acids or structurally related compounds; parameters: method as in Artiukhov et al., 2020; conditions: ref Artiukhov et al., 2020; cited from earlier work
[4] = tested on: recombinant OGDH complex; conditions: cited from earlier work
[5] = Eadie-Hofstee, read-out: Ki, EH
[6] = Lineweaver-Burk, read-out: Ki, LB
[7] = Michaelis-Menten approximation, read-out: Ki, MM
[8] = average of MM, LB, EH, read-out: Ki, Average
[9] = OGDH reaction, heart, Eadie-Hofstee, read-out: Ki, EH
[10] = OGDH reaction, heart, Lineweaver-Burk, read-out: Ki, LB
[11] = OGDH reaction, heart, Michaelis-Menten approximation, read-out: Ki, MM
[12] = OGDH reaction, heart, average of MM, LB, EH, read-out: Ki, Average
[13] = [I] 10 µM, OGDH reaction, heart
[14] = [I] 50 µM, OGDH reaction, heart
[15] = [I] 200 µM, OGDH reaction, heart
[16] = [I] 1000 µM, OGDH reaction, heart

Structure (SMILES)	Ki [1, 5]	Ki [1, 6]	Ki [1, 7]	Amax ([1]; [I] 2 µM)	Amax ([1]; [I] 10 µM)	Amax ([1]; [I] 50 µM)	Amax ([1]; [I] 200 µM)	Amax ([1]; [I] 1000 µM)	Ki [1, 8]	Ki [2, 9]	Ki [2, 10]	Ki [2, 11]	Ki [2, 12]	Amax ([2]; [I] 2 µM, OGDH reaction, heart)	Amax [2, 13]	Amax [2, 14]	Amax [2, 15]	Amax [2, 16]	interaction with other enzymes [3]	other results
O=C(O)CCCCC(=O)P(=O)(O)O [AP, adipoyl phosphonate]	326 ± 19 µM	361 ± 36 µM	405 ± 11 µM	0.042 ± 0.001 µmol/min per mg of protein	0.042 ± 0.001 µmol/min per mg of protein	0.042 ± 0.001 µmol/min per mg of protein	0.045 ± 0.001 µmol/min per mg of protein	0.049 ± 0.001 µmol/min per mg of protein	364 ± 23 µM	1760 ± 77 µM	2140 ± 517 µM	2490 ± 341 µM	2130 ± 211 µM	0.72 ± 0.01 µmol/min per mg of protein	0.62 ± 0.01 µmol/min per mg of protein	0.67 ± 0.01 µmol/min per mg of protein	0.70 ± 0.02 µmol/min per mg of protein	0.63 ± 0.03 µmol/min per mg of protein	no significant interaction	Amax ([1]; [I] 0.5 µM): 0.040 ± 0.001 µmol/min per mg of protein; Amax ([1]; [I] 5000 µM): 0.039 ± 0.004 µmol/min per mg of protein; Amax ([2]; [I] 0.5 µM, OGDH reaction, heart): 0.70 ± 0.02 µmol/min per mg of protein; Amax ([2]; [I] 5000 µM, OGDH reaction, heart): 0.61 ± 0.04 µmol/min per mg of protein
O=C(O)CCCC(=O)P(=O)(O)O [GP, glutaryl phosphonate]	6.2 ± 0.1 µM	5.6 ± 0.1 µM	7.3 ± 0.4 µM	0.045 ± 0.001 µmol/min per mg of protein	0.045 ± 0.001 µmol/min per mg of protein	0.044 ± 0.001 µmol/min per mg of protein	0.066 ± 0.011 µmol/min per mg of protein	–	6.3 ± 0.5 µM	49 ± 8 µM	12 ± 1 µM	39 ± 2 µM	33 ± 11 µM	0.67 ± 0.02 µmol/min per mg of protein	0.76 ± 0.02 µmol/min per mg of protein	0.79 ± 0.03 µmol/min per mg of protein	0.86 ± 0.05 µmol/min per mg of protein	–	–	–
O=C(O)CCCC(=O)C(=O)O [OA, 2-oxoadipate]	–	–	–	–	–	–	–	–	–	–	–	–	–	–	–	–	–	–	–	Km ([4]; OA as alternative substrate, ref Nemeria et al., 2017): 520 µM; kcat OA of recombinant OGDH complex ([4]; ref Nemeria et al., 2017, 2018): 2.7 s⁻¹
O=C(O)CCC(=O)P(=O)(O)O [SP, succinyl phosphonate]	–	–	–	–	0.043 ± 0.001 µmol/min per mg of protein	0.041 ± 0.001 µmol/min per mg of protein	0.038 ± 0.002 µmol/min per mg of protein	0.019 ± 0.002 µmol/min per mg of protein	–	15 ± 1 µM	–	–	–	–	0.72 ± 0.01 µmol/min per mg of protein	0.71 ± 0.02 µmol/min per mg of protein	0.45 ± 0.11 µmol/min per mg of protein	0.54 ± 0.07 µmol/min per mg of protein	no significant interaction	Ki ([1]; Ki, Average, average of MM, LB, EH): 7.4 ± 1.4 µM; Ki ([1]; Ki, EH, Eadie-Hofstee): 7.7 ± 0.1 µM; Ki ([1]; Ki, LB, Lineweaver-Burk): 4.9 ± 0.1 µM; Ki ([1]; Ki, MM, Michaelis-Menten approximation): 9.6 ± 0.2 µM; Ki ([2]; Ki, Average, OGDH reaction, heart, average of MM, LB, EH): 16 ± 2 µM; Ki ([2]; Ki, LB, OGDH reaction, heart, Lineweaver-Burk): 13 ± 2 µM; Ki ([2]; Ki, MM, OGDH reaction, heart, Michaelis-Menten approximation): 20 ± 1 µM; Ki ([2]; rounded from Table 2 (heart and liver preparations), read-out: Ki as OGDH inhibitor (order of magnitude)): 10 µM
